Source: patent US20250049775A1, “USE OF AMINOPYRAZOLE COMPOUNDS” (Intervet Inc., priority 2021, published 2025)

How the values were obtained:
[1] = cited from earlier work
[2] = test system: pruritus and lesions of allergic or atopic dermatitis; details: cited from earlier work
cIL-31 induced pruritus [3] = details: prior treatment, Beagle dogs, Gonzales et al. 2016; cited from earlier work
Tmax after oral dosing = assay type: in vivo, Beagle dog; details: laboratory Beagle dogs
Procedure: (§1) Using a randomized, non-blinded, cross-over study design, Compound 1 (1 mg/kg body weight), Apoquel®, or placebo was dosed orally to laboratory Beagle dogs 2 h prior to a cIL-31 challenge (approximate Tmax of Compound 1 and Apoquel®).

[4] = pilot Target Animal Safety (margin of safety) study, oral, 4 months; assay type: in vivo, Beagle dog
Procedure: A pilot Target Animal Safety study has been performed.
The objective of this study was to provide margin of safety information on Compound 1 at 1, 3 and 5 times the maximum recommended commercial dose (0.6 mg/kg body weight twice daily for two weeks and once daily thereafter (BID), or 1.2 mg/kg body weight daily (SID)) in 8-month-old Beagle dogs (at initiation of dosing), when given orally for 4 months (112 consecutive days). The clinical loading phase of 2 weeks for the BID treatment schedule was prolonged to 6 weeks in this study in accordance with VICH GL43 (3 times the proposed duration).
The test item was the final formulation blend of the investigational veterinary product, filled into gelatine capsules for dose administration. The control article was blank (empty) gelatine capsules.
In addition to that, a 4-month pilot target animal safety study has been conducted in 6-months old dogs utilizing either doses of 0.6, 1.8 or 3.0 mg/kg twice daily over the first 6 weeks (loading phase) and reducing to once daily thereafter (BID), or a dose of 6.0 mg/kg administered once daily over the whole study period (SID) compared to a control group, using 3 males and 3 females per group (Robertson, 2021).

cIL-31 induced pruritus [5] = assay: canine interleukin-31 (cIL-31) induced pruritus model; assay type: in vivo, Beagle dog
Source text: A canine interleukin-31 (cIL-31) induced pruritus model in the Beagle dog was used to inform on the dose of Compound 1 required to inhibit JAK1 signaling in vivo. The cIL-31 induced pruritus model is a relevant model of acute pruritus associated with atopic and allergic dermatitis in dogs. The magnitude of the suppression of cIL-31 induced pruritus by JAK inhibitors is predictive of their pruritus suppression in patients with allergic or atopic dermatitis As a measure of JAK-1 inhibition in vivo, and by extension the anticipated clinical efficacy of Compound 1, we evaluated Compound 1 in a relevant pharmacodynamic model and included a clinical reference.
as §1
In a second study using a randomized, non-blinded crossover design, several doses of Compound 1 were evaluated (0.5, 0.1 and 0.05 mg/kg body weight); Apoquel® and placebo treatments were also included.

[6] = dogs with allergic or atopic dermatitis, Cosgrove et al. 2013

oclacitinib maleate [Apoquel]
dogs requiring euthanasia ([1]; after 4 months, 0, 1, 3, 5 times 0.6 mg/kg twice per day, dogs about 6 months old): two dogs required euthanasia | age dependence of adverse clinical effects ([1]; dog, in vivo): most severe adverse clinical effects were observed in dogs aged less than one year | deaths from infection secondary to immunosuppression ([1]; including one death 28 days after discontinuation): two deaths | adverse finding attributed to treatment-related immunosuppression ([1]; several dogs in the mid and high dose groups): clinical demodicosis | effect on lesions [2, 6]: reduces lesions | effect on pruritus [2, 6]: rapid amelioration of pruritus | haematology effect ([2]; higher doses, FOI Summary NADA 141-345, Gonzales et al. 2014): reduction in hematocrit, hemoglobin, and reticulocyte counts | inhibition of cIL-31 induced pruritic response (cIL-31 induced pruritus [3]): can be inhibited | approximate Tmax (Tmax after oral dosing): ~2 h

COc1cc(Nc2nn([C@H]3COCC[C@@H]3C#N)cc2C(N)=O)cc(F)n1 (single isomer, unassigned) [Compound 1, 1-((3R,4S) or (3S,4R)-4-cyanotetrahydro-2H-pyran-3-yl)-3-((2-fluoro-6-methoxypyridin-4-yl)amino)-1H-pyrazole-4-carboxamide)]
changes in body weight, food consumption, ophthalmic examinations, electrocardiology or blood pressure ([4]; all doses, male and female dogs, oral, 4 months): no changes | tolerability ([4]; daily oral, up to 5 times the recommended maximum commercial dose of 1.2 mg/kg body weight (BID or SID), 6-month-old beagle dogs): well tolerated | clinical findings ([4]; overdosed animals): Minor clinical findings (e.g., interdigital cysts, conjunctivitis, gingivitis, diarrhoea) | susceptibility to minor infections ([4]; recommended maximum commercial dose): no increased susceptibility to minor infections | susceptibility to minor infections ([4]; repeated overdoses): increased susceptibility to minor infections | overall safety conclusion ([4]; young dogs): safe for use in young dogs | suppression of cIL-31 induced pruritus (cIL-31 induced pruritus [5]; 0.05 mg/kg body weight, second study): not | suppression of cIL-31 induced pruritus (cIL-31 induced pruritus [5]; 0.1 mg/kg body weight, second study): not | suppression of cIL-31 induced pruritus (cIL-31 induced pruritus [5]; 0.5 mg/kg body weight, second study): significantly suppressed | magnitude of effect compared with Apoquel (cIL-31 induced pruritus [5]; 0.5 mg/kg, second study): similar | suppression of cIL-31 induced pruritus (cIL-31 induced pruritus [5]; 1 mg/kg body weight oral, 2 h prior to cIL-31 challenge, observed 2 h): significantly suppressed | Tmax (Tmax after oral dosing; dog, in vivo, 1 mg/kg body weight, read-out: approximate Tmax): ~2 h
